Test results: patent US6169083A, “Preventives/remedies for stomatitis” (Zeria Pharmaceutical Co., Ltd., priority 1996, dated 2001)

How the values were obtained:
[1] = system: rats; assay: Acute toxicity (oral administration to rats); format: in vivo
Method: (2) The LD50 value of the sodium alginate was 5,000 mg/kg as determined by oral administration to rats.

[2] = Clinical examples: treatment of stomatitis in cancer patients subjected to chemotherapy and/or radiotherapy; format: in vivo, patient
From the text: Examples (Clinical Examples):
The frequency indicated in each example indicates a symptomatic process and was judged on the basis of the side effect standard by the Japanese Cancer Association. The frequency and symptom thereof are as follows, and a higher frequency indicates a severer symptom. […]

Row | Molecule | LD50 [1] | clinical outcome of stomatitis ([2]; Example 1, suspension 150 mg/100 ml, 5 ml, 5 or 6 times a day, 8 days) | clinical outcome of stomatitis ([2]; Example 2, suspension 450 mg/100 ml, 5 ml, 2 to 4 times a day 6 days, then 3 days, swab additional 2 days) | clinical outcome of stomatitis ([2]; Example 3, suspension 300 mg/100 ml, 5 ml, twice a day, 10 days) | clinical outcome of stomatitis ([2]; Example 12, ointment 150 mg in plastibase 100 g, swab, 3 to 5 times a day, 9 days)
1 | NCCC(=O)[N-][C@@H](Cc1c[nH]cn1)C(=O)[O-].[Zn+2] [crystalline L-carnosine zinc salt, L-carnosine zinc salt] | 8,441 mg/kg | the erosion and ulcer arisen on the intraoral mucosa were completely healed | the ulcer arisen on the intraoral mucosa and angulus oris was completely healed, and the patient became able to ingest a solid diet | the ulcer arisen on the intraoral mucosa was completely healed, and the patient became able to ingest a solid diet | the ulcer in the oral cavity was completely healed, and the patient became able to ingest a solid diet
2 | sodium alginate [reference compound] | 5,000 mg/kg |  |  |  | 
